Data as given in patent publication US10717716B2, “1,3,4-oxadiazole derivative compounds as histone deacetylase 6 inhibitor, and the pharmaceutical composition comprising the same” (Chong Kun Dang Pharmaceutical Corp., priority 2015, dated 2020).

Target: T1, human recombinant HDAC6 (Homo sapiens, UniProt Q9UBN7)
T1 construct: purchased Calbiochem 382180
T1 sequence (Q9UBN7 1-1215): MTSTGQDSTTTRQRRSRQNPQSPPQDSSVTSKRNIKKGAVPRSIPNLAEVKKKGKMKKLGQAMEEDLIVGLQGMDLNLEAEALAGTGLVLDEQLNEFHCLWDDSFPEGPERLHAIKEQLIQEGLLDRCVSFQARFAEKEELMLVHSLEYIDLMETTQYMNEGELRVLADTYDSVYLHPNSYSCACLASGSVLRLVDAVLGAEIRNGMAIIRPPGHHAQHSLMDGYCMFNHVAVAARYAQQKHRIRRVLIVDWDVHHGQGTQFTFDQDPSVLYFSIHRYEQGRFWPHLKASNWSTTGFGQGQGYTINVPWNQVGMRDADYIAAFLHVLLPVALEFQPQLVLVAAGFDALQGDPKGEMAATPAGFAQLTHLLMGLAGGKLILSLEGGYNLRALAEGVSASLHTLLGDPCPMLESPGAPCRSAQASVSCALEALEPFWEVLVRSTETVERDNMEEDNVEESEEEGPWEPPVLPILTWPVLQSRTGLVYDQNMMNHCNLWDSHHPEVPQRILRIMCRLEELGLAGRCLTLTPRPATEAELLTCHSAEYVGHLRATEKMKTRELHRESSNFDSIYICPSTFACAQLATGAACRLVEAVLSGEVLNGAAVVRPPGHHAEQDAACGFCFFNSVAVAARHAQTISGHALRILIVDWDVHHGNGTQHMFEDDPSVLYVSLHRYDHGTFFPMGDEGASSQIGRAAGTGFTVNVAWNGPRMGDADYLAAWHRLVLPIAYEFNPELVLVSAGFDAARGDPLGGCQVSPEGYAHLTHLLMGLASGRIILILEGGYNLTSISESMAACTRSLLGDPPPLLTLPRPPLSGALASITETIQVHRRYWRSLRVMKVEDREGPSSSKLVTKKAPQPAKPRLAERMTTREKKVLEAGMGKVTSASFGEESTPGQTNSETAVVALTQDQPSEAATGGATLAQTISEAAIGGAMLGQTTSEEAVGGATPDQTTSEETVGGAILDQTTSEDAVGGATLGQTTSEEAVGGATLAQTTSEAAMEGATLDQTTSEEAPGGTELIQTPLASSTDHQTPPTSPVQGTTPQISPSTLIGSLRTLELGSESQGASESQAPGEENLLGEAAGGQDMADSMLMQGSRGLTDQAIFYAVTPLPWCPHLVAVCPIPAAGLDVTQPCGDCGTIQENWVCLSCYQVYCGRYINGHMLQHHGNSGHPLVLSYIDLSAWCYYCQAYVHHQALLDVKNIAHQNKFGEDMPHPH
Assay: HDAC6 enzyme activity inhibition assay (HDAC Fluorimetric Drug Discovery Kit)
Format: biochemical
Settings: for HDAC6 selectivity (fold): HDAC6 over HDAC1; for IC50: human recombinant HDAC6, same protocol as HDAC1, read-out: HDAC6
How it was run: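 Fluorimetric deacetylase assay: 5-fold serial compound dilutions, 0.3 μg recombinant human enzyme (HDAC1 or HDAC6, same protocol), 10 μM Fluor de Lys-SIRT1 substrate, 60 min at 30 °C. Signal developed 30 min, measured at 360/460 nm; IC50 values derived.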

| Compound | HDAC6 selectivity (fold) | IC50 |
| --- | --- | --- |
| O=C(N1CCNCC1)N(Cc1ccc(-c2nnc(C(F)(F)F)o2)cc1)c1ccccc1 [Compound 21362, N-phenyl-N-(4-(5-(trifluoromethyl)-1,3,4-oxadiazol-2-yl)benzyl)piperazine-1-carboxamide] | 180 fold | 55.7 nM |
| CN1CCN(Cc2ccc(N(Cc3ccc(-c4nnc(C(F)F)o4)cc3F)C(=O)N3CCS(=O)(=O)CC3)cc2)CC1 [Compound 21516, N-(4-(5-(difluoromethyl)-1,3,4-oxadiazol-2-yl)-2-fluorobenzyl)-N-(4-((4-methylpiperazin-1-yl)methyl)phenyl)thiomorpholine-4-carboxamide 1,1-dioxide] | 250 fold | 40 nM |
| CCN1CCN(C(=O)N(Cc2ccc(-c3nnc(C(F)F)o3)cc2)c2cccc(OC)c2)CC1 [Compound 21889, N-(4-(5-(Difluoromethyl)-1,3,4-oxadiazol-2-yl)benzyl)-4-ethyl-N-(3-methoxyphenyl)piperazine-1-carboxamide] | 103 fold | 98 nM |
| CN1CCN(C(=O)N(Cc2ccc(-c3nnc(C(F)F)o3)cc2F)c2cccc(-c3ccoc3)c2)CC1 [Compound 21534, N-(4-(5-(difluoromethyl)-1,3,4-oxadiazol-2-yl)-2-fluorobenzyl)-N-(3-(furan-3-yl)phenyl)-4-methylpiperazine-1-carboxamide] | 175 fold | 57 nM |
| O=C(NCCN1CCC(Cc2ccccc2)CC1)N(Cc1ccc(-c2nnc(C(F)F)o2)cc1F)c1ccccc1 [Compound 22004, 3-(2-(4-Benzylpiperidin-1-yl)ethyl)-1-(4-(5-(difluoromethyl)-1,3,4-oxadiazol-2-yl)-2-fluorobenzyl)-1-phenylurea] | 24 fold | 412 nM |
| O=C(N1CCS(=O)(=O)CC1)N(Cc1ccc(-c2nnc(C(F)(F)F)o2)cc1)c1ccc(C(F)(F)F)cc1 [Compound 21412, N-(4-(5-(trifluoromethyl)-1,3,4-oxadiazol-2-yl)benzyl)-N-(4-(trifluoromethyl)phenyl)thiomorpholine-4-carboxamide 1,1-dioxide] | 21 fold | 470 nM |
| O=C(N1CCS(=O)(=O)CC1)N(Cc1ccc(-c2nnc(C(F)F)o2)cc1F)c1cccc(F)c1 [Compound 21807, N-(4-(5-(difluoromethyl)-1,3,4-oxadiazol-2-yl)-2-fluorobenzyl)-N-(3-fluorophenyl)thiomorpholine-4-carboxamide 1,1-dioxide] | 256 fold | 39 nM |
| CCN1CC2(CCN(C(=O)N(Cc3ccc(-c4nnc(C(F)(F)F)o4)cc3)c3ccccc3)CC2)C1 [Compound 21421, 2-Ethyl-N-phenyl-N-(4-(5-(trifluoromethyl)-1,3,4-oxadiazol-2-yl)benzyl)-2,7-diazaspiro[3.5]nonane-7-carboxamide] | 149 fold | 67 nM |
| O=C(N1CCOCC1)N(Cc1ccc(-c2nnc(C(F)(F)F)o2)c(F)c1)c1ccccc1 [Compound 21319, N-(3-fluoro-4-(5-(trifluoromethyl)-1,3,4-oxadiazol-2-yl)benzyl)-N-phenylmorpholine-4-carboxamide] | 52 fold | 192 nM |
| CN1CCC2(CC1)CN(C(=O)N(Cc1ccc(-c3nnc(C(F)F)o3)cc1F)c1ccccc1)C2 [Compound 21498, N-(4-(5-(difluoromethyl)-1,3,4-oxadiazol-2-yl)-2-fluorobenzyl)-7-methyl-N-phenyl-2,7-diazaspiro[3.5]nonane-2-carboxamide] | 714 fold | 14 nM |
| CC(=O)N1CC2(CCN(C(=O)N(Cc3ccc(-c4nnc(C(F)(F)F)o4)cc3)c3ccccc3)CC2)C1 [Compound 21418, 2-Acetyl-N-phenyl-N-(4-(5-(trifluoromethyl)-1,3,4-oxadiazol-2-yl)benzyl)-2,7-diazaspiro[3.5]nonane-7-carboxamide] | 65 fold | 154 nM |
| Cc1noc(C2CCN(CCNC(=O)N(Cc3ccc(-c4nnc(C(F)F)o4)cc3F)c3ccccc3)CC2)n1 [Compound 22005, 1-(4-(5-(Difluoromethyl)-1,3,4-oxadiazol-2-yl)-2-fluorobenzyl)-3-(2-(4-(3-methyl-1,2,4-oxadiazol-5-yl)piperidin-1-yl)ethyl)-1-phenylurea] | 79 fold | 126 nM |
| CN(C)[C@@H]1CCN(C(=O)N(Cc2ccc(-c3nnc(C(F)F)o3)cn2)c2ccc(F)c(Cl)c2)C1 [Compound 21602, (R)—N-(3-chloro-4-fluorophenyl)-N-((5-(5-(difluoromethyl)-1,3,4-oxadiazol-2-yl)pyridin-2-yl)methyl)-3-(dimethylamino)pyrrolidine-1-carboxamide] | 526 fold | 19 nM |
| CC1(C)Cc2cccc(N(Cc3ccc(-c4nnc(C(F)F)o4)cc3F)C(=O)N3CCS(=O)(=O)CC3)c2O1 [Compound 21798, N-(4-(5-(Difluoromethyl)-1,3,4-oxadiazol-2-yl)-2-fluorobenzyl)-N-(2,2-dimethyl-2,3-dihydrobenzofuran-7-yl)thiomorpholine-4-carboxamide 1,1-dioxide] | 8 fold | 1320 nM |
| CN1CCN(Cc2ccc(N(Cc3ccc(-c4nnc(C(F)(F)F)o4)cc3F)C(=O)N3CCS(=O)(=O)CC3)cc2)CC1 [Compound 21515, N-(2-fluoro-4-(5-(trifluoromethyl)-1,3,4-oxadiazol-2-yl)benzyl)-N-(4-((4-methylpiperazin-1-yl)methyl)phenyl)thiomorpholine-4-carboxamide 1,1-dioxide] | 115 fold | 87 nM |
| O=C(N1CCOCC1)N(Cc1ccc(-c2nnc(C(F)(F)F)o2)cc1F)c1ccccc1 [Compound 21318, N-(2-fluoro-4-(5-(trifluoromethyl)-1,3,4-oxadiazol-2-yl)benzyl)-N-phenylmorpholine-4-carboxamide] | 145 fold | 69 nM |
| O=C(N1CCC1)N(Cc1ccc(-c2nnc(C(F)(F)F)o2)cc1)c1ccccc1 [Compound 21349, N-phenyl-N-(4-(5-(trifluoromethyl)-1,3,4-oxadiazol-2-yl)benzyl)azetidine-1-carboxamide] | 23 fold | 430 nM |
| Cc1ccccc1N(Cc1ccc(-c2nnc(C(F)F)o2)cn1)C(=O)N1CCN(C)CC1 [Compound 21632, N-((5-(5-(difluoromethyl)-1,3,4-oxadiazol-2-yl)pyridin-2-yl)methyl)-4-methyl-N-(o-tolyl)piperazine-1-carboxamide] | 245 fold | 41 nM |
| O=C(N1CCS(=O)(=O)CC1)N(Cc1ccc(-c2nnc(C(F)(F)F)o2)cc1)c1ccccc1 [Compound 21361, N-phenyl-N-(4-(5-(trifluoromethyl)-1,3,4-oxadiazol-2-yl)benzyl)thiomorpholine-4-carboxamide 1,1-dioxide] | 147 fold | 67.8 nM |
| O=C(N1CCN(C2COC2)CC1)N(Cc1ccc(-c2nnc(C(F)F)o2)cn1)c1cccc(F)c1 [Compound 21938, N-((5-(5-(Difluoromethyl)-1,3,4-oxadiazol-2-yl)pyridin-2-yl)methyl)-N-(3-fluorophenyl)-4-(oxetan-3-yl)piperazine-1-carboxamide] | 122 fold | 82 nM |
